The structures appear in SMILES notation.

The nature of data set [1]: Assay 1. Stability of multibiotic agents in a buffer. In kind it is physicochemical. Details: key to Assay 1 (% Remaining @ 24 hours): A: <25% of the tested compound remaining; B: 25-75% of the tested compound remaining; C: >75% of the tested compound remaining; D: no change in the amount of the tested compound. The following applies: for degradation in Assay 1 (in words): buffer stability; for Assay 1 (% Remaining @ 24 hours): phosphate buffer pH 2, 4, 6 and 8, RT, 2 μM, LC/MS/MS. Here is the method:
Assay 1. Stability of multibiotic agents in a buffer. This assay can be used for the assessment of the stability of a multibiotic agent at different physiological pH levels.
Compounds were diluted in DMSO, and the resulting solution was added in the appropriate quantity to phosphate buffer (pH levels 2, 4, 6, and 8) to reach a total sample concentration of 2 μM. Compounds were incubated at RT, and aliquots were removed at time points 0, 60, 120, 360 and 1440 minutes and analyzed for purity by LC/MS/MS.

Data set [2] can be described thus: Stability of multibiotic agents in Simulated Gastric Fluid (SGF). The data set is classed as in vitro ADME. The settings on record: simulated gastric fluid pH 1.6 with pepsin, 37° C., 1 μM. A digest of the protocol:
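Compounds were incubated at 1 μM final at 37 °C in simulated gastric fluid containing NaCl, pH 1.6, with FaSSIF powder and 0.1 mg/mL pepsin. Aliquots were taken at T0 and at regular intervals and quenched with acetonitrile. Degradation rates were determined by LC/MS.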

The nature of data set [3]: Stability of multibiotic agents in Simulated Intestinal Fluid (SIF). The settings on record: simulated intestinal fluid pH 6.7 with pancreatin, 37° C., 1 μM. The data set is classed as in vitro ADME. The method in brief: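 Compounds at 1 μM final (from 1 mM DMSO stock) incubated at 37 °C with agitation in fresh SIF (FaSSIF plus pancreatin in pH 6.7 phosphate buffer). Aliquots taken at T0 and regular intervals, quenched with 1 volume acetonitrile. Degradation rate determined by LC/MS.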

For `O=C(CCCc1ccccc1)OC1OC[C@@H](OC(=O)CCCc2ccccc2)[C@H](OC(=O)CCCc2ccccc2)[C@H]1OC(=O)CCCc1ccccc1` (mixture of isomers) [Example 24, [(3R,4S,5R)-4,5,6-tris(4-phenylbutanoyloxy)tetrahydropyran-3-yl] 4-phenylbutanoate], in data set [1], the “degradation in Assay 1 (in words)” value was “no apparent degradation” and the “Assay 1 (% Remaining @ 24 hours)” value was “D”.

For the molecule `CCCC(=O)OC1OC[C@@H](OC(=O)CCC)[C@H](OC(=O)CCC)[C@H]1OC(=O)CCC` (mixture of isomers) [Example 29, [(3R,4S,5R)-4,5,6-tri(butanoyloxy)tetrahydropyran-3-yl] butanoate], in data set [1], the “degradation in Assay 1 (in words)” value is given as “no apparent degradation” and the “Assay 1 (% Remaining @ 24 hours)” value is on record as “D”.

Consider `CCCC(=O)OCC1(OC(=O)CCC)OC[C@@H](OC(=O)CCC)[C@H](OC(=O)CCC)[C@@H]1OC(=O)CCC` (stereo partly drawn) [Example 163, [(3S,4S,5R)-2,3,4,5-tetra(butanoyloxy)tetrahydropyran-2-yl]methyl butanoate], for which the “Assay 2 (SGF) (% Remaining @ 4 hours)” value in data set [2] is given as “B (25-75% of the tested compound remaining)”. For the same molecule, the “Assay 3 (SIF) (% @ Remaining 4 hours)” value in data set [3] is given as “A (<25% of the tested compound remaining)”.

On to `CCCC(=O)OC[C@@H](OC(=O)CCC)[C@@H](OC(=O)CCC)[C@H](OC(=O)CCC)[C@@H](OC(=O)CCC)C(=O)Oc1ccc(/C=C/c2cc(OC(=O)[C@H](OC(=O)CCC)[C@@H](OC(=O)CCC)[C@H](OC(=O)CCC)[C@@H](COC(=O)CCC)OC(=O)CCC)cc(OC(=O)[C@H](OC(=O)CCC)[C@@H](OC(=O)CCC)[C@H](OC(=O)CCC)[C@@H](COC(=O)CCC)OC(=O)CCC)c2)cc1` [Example 164, [4-[(E)-2-[3,5-bis[[(2R,3S,4R,5R)-2,3,4,5,6-penta(butanoyloxy)hexanoyl]oxy]phenyl]vinyl]phenyl] (2R,3S,4R,5R)-2,3,4,5,6-penta(butanoyloxy)hexanoate], for which the “Assay 2 (SGF) (% Remaining @ 4 hours)” value in data set [2] is on record as “B (25-75% of the tested compound remaining)”. Besides, the “Assay 3 (SIF) (% @ Remaining 4 hours)” value in data set [3] was “B (25-75% of the tested compound remaining)”.

As for `CCC(=O)OC1OC[C@@H](OC(=O)CC)[C@H](OC(=O)CC)[C@H]1OC(=O)CC` (stereo partly drawn) [Example 165, [(3R,4S,5R)-4,5,6-tri(propanoyloxy)tetrahydropyran-3-yl] propanoate], the “Assay 2 (SGF) (% Remaining @ 4 hours)” value in data set [2] was “C (>75% of the tested compound remaining)”. Also, the “Assay 3 (SIF) (% @ Remaining 4 hours)” value in data set [3] was “A (<25% of the tested compound remaining)”.

Take `CCC(=O)O[C@@H]1[C@@H](OC(=O)CC)[C@H](OC(=O)CC)CO[C@H]1O` [Example 166, [(3R,4S,5R,6R)-6-hydroxy-4,5-di(propanoyloxy)tetrahydropyran-3-yl] propanoate]: the “Assay 2 (SGF) (% Remaining @ 4 hours)” value in data set [2] is listed as “C (>75% of the tested compound remaining)”. In addition, the “Assay 3 (SIF) (% @ Remaining 4 hours)” value in data set [3] was “B (25-75% of the tested compound remaining)”.

With `CC(=O)Oc1ccc(-c2oc3cc(OC(C)=O)cc(OC(C)=O)c3c(=O)c2OC(C)=O)cc1` [Example 169, [4-(3,5,7-triacetoxy-4-oxo-chromen-2-yl)phenyl] acetate], the “Assay 2 (SGF) (% Remaining @ 4 hours)” value in data set [2] is “C (>75% of the tested compound remaining)”. In addition, in data set [3], the “Assay 3 (SIF) (% @ Remaining 4 hours)” value is listed as “A (<25% of the tested compound remaining)”.

As to `CC(=O)Oc1ccc(C2CC(=O)c3c(OC(C)=O)cc(OC(C)=O)cc3O2)cc1` (centres unmarked) [Example 170, [4-(5,7-diacetoxy-4-oxo-chroman-2-yl)phenyl] acetate], the “Assay 2 (SGF) (% Remaining @ 4 hours)” value in data set [2] is “C (>75% of the tested compound remaining)”. Further, in data set [3], the “Assay 3 (SIF) (% @ Remaining 4 hours)” value is given as “A (<25% of the tested compound remaining)”.

As to `CCCC(=O)Oc1ccc(C2CC(=O)c3c(OC(=O)CCC)cc(OC(=O)CCC)cc3O2)cc1` (centres unmarked) [Example 171, [4-[5,7-di(butanoyloxy)-4-oxo-chroman-2-yl]phenyl] butanoate], the “Assay 2 (SGF) (% Remaining @ 4 hours)” value in data set [2] is given as “B (25-75% of the tested compound remaining)”. For the same molecule, the “Assay 3 (SIF) (% @ Remaining 4 hours)” value in data set [3] is reported as “A (<25% of the tested compound remaining)”.

As to `C[C@@H](O)CCOC(=O)C[C@@H](C)O` [Example 172, [(3R)-3-hydroxybutyl] (3R)-3-hydroxybutanoate], the “Assay 2 (SGF) (% Remaining @ 4 hours)” value in data set [2] was “C (>75% of the tested compound remaining)”. Besides, the “Assay 3 (SIF) (% @ Remaining 4 hours)” value in data set [3] is “C (>75% of the tested compound remaining)”.

In the case of `CCCC(=O)O[C@H](C)CCOC(=O)C[C@@H](C)OC(=O)CCC` [Example 173, [(3R)-3-butanoyloxybutyl] (3R)-3-butanoyloxybutanoate], in data set [2], the “Assay 2 (SGF) (% Remaining @ 4 hours)” value is “C (>75% of the tested compound remaining)”. Besides, the “Assay 3 (SIF) (% @ Remaining 4 hours)” value in data set [3] is “A (<25% of the tested compound remaining)”.

Regarding `CC(=O)Oc1cc(OC(C)=O)c2c(=O)c(OC(C)=O)c(-c3cc(OC(C)=O)c(OC(C)=O)c(OC(C)=O)c3)oc2c1` [Example 177, [3,5-diacetoxy-4-oxo-2-(3,4,5-triacetoxyphenyl)chromen-7-yl] acetate], the “Assay 2 (SGF) (% Remaining @ 4 hours)” value in data set [2] was “C (>75% of the tested compound remaining)”. Besides, the “Assay 3 (SIF) (% @ Remaining 4 hours)” value in data set [3] is given as “A (<25% of the tested compound remaining)”.

For the molecule `CC(=O)OCC[C@@H](C)OC(=O)Oc1ccc(/C=C/c2cc(OC(=O)O[C@H](C)CCOC(C)=O)cc(OC(=O)O[C@H](C)CCOC(C)=O)c2)cc1` [Example 178, [(3R)-3-[4-[(E)-2-[3,5-bis[[(1R)-3-acetoxy-1-methyl-propoxy]carbonyloxy]phenyl]vinyl]phenoxy]carbonyloxybutyl] acetate], the “Assay 2 (SGF) (% Remaining @ 4 hours)” value in data set [2] was “C (>75% of the tested compound remaining)”. Moreover, the “Assay 3 (SIF) (% @ Remaining 4 hours)” value in data set [3] is given as “A (<25% of the tested compound remaining)”.

Turning to `CC(=O)OC[C@H]1O[C@@H](Oc2c(C)c(C)c3c(c2C)CC[C@@](C)(CCC[C@H](C)CCC[C@H](C)CCCC(C)C)O3)[C@H](OC(C)=O)[C@@H](OC(C)=O)[C@@H]1OC(C)=O` [Example 180, [(2R,3R,4S,5R,6S)-3,4,5-triacetoxy-6-[(2R)-2,5,7,8-tetramethyl-2-[(4R,8R)-4,8,12-trimethyltridecyl]chroman-6-yl]oxy-tetrahydropyran-2-yl]methyl acetate], in data set [2], the “Assay 2 (SGF) (% Remaining @ 4 hours)” value was “C (>75% of the tested compound remaining)”. Moreover, in data set [3], the “Assay 3 (SIF) (% @ Remaining 4 hours)” value is reported as “C (>75% of the tested compound remaining)”.

`C[C@@H]1CCOC(C)(C(=O)Oc2ccc(/C=C/c3cc(OC(=O)C4(C)OCC[C@@H](C)O4)cc(OC(=O)C4(C)OCC[C@@H](C)O4)c3)cc2)O1` (stereo partly drawn) [Example 182, [4-[(E)-2-[3,5-bis[[(4R)-2,4-dimethyl-1,3-dioxane-2-carbonyl]oxy]phenyl]vinyl]phenyl] (4R)-2,4-dimethyl-1,3-dioxane-2-carboxylate]: the “Assay 2 (SGF) (% Remaining @ 4 hours)” value in data set [2] is “C (>75% of the tested compound remaining)”. Also, the “Assay 3 (SIF) (% @ Remaining 4 hours)” value in data set [3] is given as “C (>75% of the tested compound remaining)”.

Consider `Cc1c(C)c2c(c(C)c1OC(=O)C1OCC[C@@H](C)O1)CC[C@@](C)(CCC[C@H](C)CCC[C@H](C)CCCC(C)C)O2` (stereo partly drawn) [Example 183, [(2R)-2,5,7,8-tetramethyl-2-[(4R,8R)-4,8,12-trimethyltridecyl]chroman-6-yl] (4R)-4-methyl-1,3-dioxane-2-carboxylate], for which the “Assay 2 (SGF) (% Remaining @ 4 hours)” value in data set [2] is “C (>75% of the tested compound remaining)”. Moreover, in data set [3], the “Assay 3 (SIF) (% @ Remaining 4 hours)” value was “A (<25% of the tested compound remaining)”.

As for `C=C1CC[C@H](OC(=O)[C@H](OC(=O)CCC)[C@@H](OC(=O)CCC)[C@H](OC(=O)CCC)[C@@H](COC(=O)CCC)OC(=O)CCC)C/C1=C/C=C1\CCC[C@]2(C)[C@@H]([C@H](C)CCCC(C)C)CC[C@@H]12` [Example 184, [(1S,3Z)-3-[(2E)-2-[(1R,3aS,7aR)-1-[(1R)-1,5-dimethylhexyl]-7a-methyl-2,3,3a,5,6,7-hexahydro-1H-inden-4-ylidene]ethylidene]-4-methylene-cyclohexyl] (2R,3S,4R,5R)-2,3,4,5,6-penta(butanoyloxy)hexanoate], in data set [2], the “Assay 2 (SGF) (% Remaining @ 4 hours)” value is recorded as “B (25-75% of the tested compound remaining)”. In addition, the “Assay 3 (SIF) (% @ Remaining 4 hours)” value in data set [3] is reported as “A (<25% of the tested compound remaining)”.

As for `C=C1CC[C@H](OC(=O)C2OCC[C@@H](C)O2)C/C1=C/C=C1\CCC[C@]2(C)[C@@H]([C@H](C)CCCC(C)C)CC[C@@H]12` (stereo partly drawn) [Example 186, [(1S,3Z)-3-[(2E)-2-[(1R,3aS,7aR)-1-[(1R)-1,5-dimethylhexyl]-7a-methyl-2,3,3a,5,6,7-hexahydro-1H-inden-4-ylidene]ethylidene]-4-methylene-cyclohexyl] (4R)-4-methyl-1,3-dioxane-2-carboxylate], the “Assay 2 (SGF) (% Remaining @ 4 hours)” value in data set [2] was “C (>75% of the tested compound remaining)”. Moreover, in data set [3], the “Assay 3 (SIF) (% @ Remaining 4 hours)” value was “C (>75% of the tested compound remaining)”.

`C=C1CC[C@H](OC(=O)C2(C)OCC[C@@H](C)O2)C/C1=C/C=C1\CCC[C@]2(C)[C@@H]([C@H](C)CCCC(C)C)CC[C@@H]12` (stereo partly drawn) [Example 187, [(1S,3Z)-3-[(2E)-2-[(1R,3aS,7aR)-1-[(1R)-1,5-dimethylhexyl]-7a-methyl-2,3,3a,5,6,7-hexahydro-1H-inden-4-ylidene]ethylidene]-4-methylene-cyclohexyl] (4R)-2,4-dimethyl-1,3-dioxane-2-carboxylate]: in data set [2], the “Assay 2 (SGF) (% Remaining @ 4 hours)” value was “B (25-75% of the tested compound remaining)”. The “Assay 3 (SIF) (% @ Remaining 4 hours)” value in data set [3] is on record as “C (>75% of the tested compound remaining)”.

Values taken from US20230293458A1, “MULTIBIOTIC AGENTS AND METHODS OF USING THE SAME” (Flagship Pioneering Innovations V, Inc., priority 2017, published 2023).
